Reference: US11000033B2, “Ketone or oxime compound, and herbicide” (NISSAN CHEMICAL CORPORATION, priority 2014, dated 2021)

Experiments:
Type in all cases: in vivo
[1] = test system: Stellaria media; experiment: Test Example 4: herbicidal effect by soil treatment (symbol P); conditions: 320 g/ha
In short: (§1)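 Seeds were sown in sterilized diluvial soil, covered with about 1.5 cm of soil, and the soil surface was sprayed with a water-diluted emulsion of the compound at a predetermined rate. Plants grew in a greenhouse at 25° C. to 30° C.; effects were scored visually 3 weeks after application.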

[2] = test system: Leptochloa chinensis; experiment: Test Example 3: herbicidal effect by foliage application, Wagner pot (symbol D); conditions: application herbicide amount 320 g/ha
In short: (§2)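 Steps: fill pot with alluvial soil; add water to 0.1–0.5 cm depth; sow weed and rice seed; grow 14 days at 25–30 °C; spray diluted emulsion over the leaves; rate effect after 3 weeks.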

[3] = test system: Stellaria media; experiment: Test Example 5: herbicidal effect by foliage application, plastic box (symbol P); conditions: 320 g/ha, 3 weeks after application
In short: (§3)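 Post-emergence spray; diluvial soil (sterilized), ~1.5 cm seed cover; greenhouse 25–30° C; 14-day-old plants; water-diluted emulsion at predetermined dose; visual score at 3 wk post-treatment.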

[4] = test system: Lolium multiflorum Lam.; experiment: Test Example 4: herbicidal effect by soil treatment (symbol K); conditions: 320 g/ha
In short: as §1

[5] = test system: Echinochloa oryzacola Vasing.; experiment: Test Example 2: herbicidal activity, application during weed generation in submerged conditions (symbol A); conditions: Table 23; application herbicide amount 320 g/ha; grade 0-5 by criteria of Test Example 1
In short: (§4)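 Submerged alluvial soil (4 cm) sown with mixed seed; greenhouse 25–30° C. 1–2 leaf: diluted emulsion onto water surface, preset dose. Visual score, 3 wk.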

[6] = test system: Scirpus juncoides; experiment: Test Example 2: herbicidal activity, application during weed generation in submerged conditions (symbol B); conditions: Table 23; application herbicide amount 320 g/ha; grade 0-5 by criteria of Test Example 1
In short: as §4

[7] = test system: Avena fatua; experiment: Test Example 4: herbicidal effect by soil treatment (symbol I); conditions: 320 g/ha
In short: as §1

[8] = test system: wheat; experiment: Test Example 4: effect on crop by soil treatment (symbol e); conditions: 320 g/ha
In short: (§5)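 Plants are raised in a greenhouse (25° C. to 30° C.) from spot-sown seed, which sits under about 1.5 cm of sterilized diluvial soil in a box shared with weed species.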

[9] = test system: Alopecurus myosuroides; experiment: Test Example 4: herbicidal effect by soil treatment (symbol J); conditions: 320 g/ha
In short: as §1

[10] = test system: Digitaria ciliaris; experiment: Test Example 4: herbicidal effect by soil treatment (symbol F); conditions: 320 g/ha
In short: as §1

[11] = test system: Echinochloa crus-galli var. crus-galli; experiment: Test Example 3: herbicidal effect by foliage application, Wagner pot (symbol H); conditions: application herbicide amount 320 g/ha
In short: as §2

[12] = test system: Alopecurus myosuroides; experiment: Test Example 5: herbicidal effect by foliage application, plastic box (symbol J); conditions: 320 g/ha, 3 weeks after application
In short: as §3

[13] = test system: Echinochloa crus-galli var. crus-galli; experiment: Test Example 5: herbicidal effect by foliage application, plastic box (symbol H); conditions: 320 g/ha, 3 weeks after application
In short: as §3

[14] = test system: rice plant; experiment: Test Example 5: effect on crop by foliage application, plastic box (symbol b); conditions: 320 g/ha, 3 weeks after application
In short: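 In a plastic box 7 cm deep filled with sterilized diluvial soil, seeds of crops and weeds such as Digitaria ciliaris, Avena fatua and Amaranthus retroflexus are sown in spots and covered with about 1.5 cm of soil before greenhouse growth at 25–30° C.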

[15] = test system: rice; experiment: Test Example 4: effect on crop by soil treatment (symbol b); conditions: 320 g/ha
In short: as §5

[16] = test system: Amaranthus retroflexus; experiment: Test Example 5: herbicidal effect by foliage application, plastic box (symbol N); conditions: 320 g/ha, 3 weeks after application
In short: as §3

[17] = test system: Setaria viridis; experiment: Test Example 4: herbicidal effect by soil treatment (symbol G); conditions: 320 g/ha
In short: as §1

[18] = test system: Monochoria vaginalis; experiment: Test Example 2: herbicidal activity, application during weed generation in submerged conditions (symbol C); conditions: Table 23; application herbicide amount 320 g/ha; grade 0-5 by criteria of Test Example 1
In short: as §4

[19] = test system: Chenopodium album; experiment: Test Example 5: herbicidal effect by foliage application, plastic box (symbol O); conditions: 320 g/ha, 3 weeks after application
In short: as §3

CON=C(C)CC1CC(OC(=O)CN(C)C(=O)c2ccccc2)=C(c2c(C)cc(C)cc2C)C1=O (stereo not shown) [1-139]
P: Stellaria media, herbicidal effect grade [1]: 0 (Herbicidal ratio of 5% or lower (almost no effect))
herbicidal effect on D (Leptochloa chinensis), grade 0-5 [2]: 5 (Herbicidal ratio of 90% or more (almost completely withered))
P: Stellaria media, herbicidal effect (criteria 0-5) [3]: 3 (Herbicidal ratio of 40% or higher and lower than 70%)
K: Lolium multiflorum Lam., herbicidal effect grade [4]: 5 (Herbicidal ratio of 90% or more (almost completely withered))
Herbicidal effect grade, A: Echinochloa oryzacola Vasing. [5]: 5 (Herbicidal ratio of 90% or more (almost completely withered))
Herbicidal effect grade, B: Scirpus juncoides [6]: 4 (Herbicidal ratio of 70% or higher and lower than 90%)
I: Avena fatua, herbicidal effect grade [7]: 4 (Herbicidal ratio of 70% or higher and lower than 90%)
e: wheat, effect grade on crop [8]: 3 (Herbicidal ratio of 40% or higher and lower than 70%)
J: Alopecurus myosuroides, herbicidal effect grade [9]: 5 (Herbicidal ratio of 90% or more (almost completely withered))
F: Digitaria ciliaris, herbicidal effect grade [10]: 5 (Herbicidal ratio of 90% or more (almost completely withered))
herbicidal effect on H (Echinochloa crus-galli var. crus-galli), grade 0-5 [11]: 5 (Herbicidal ratio of 90% or more (almost completely withered))
J: Alopecurus myosuroides, herbicidal effect (criteria 0-5) [12]: 5 (Herbicidal ratio of 90% or more (almost completely withered))
H: Echinochloa crus-galli var. crus-galli, herbicidal effect (criteria 0-5) [13]: 5 (Herbicidal ratio of 90% or more (almost completely withered))
b: directly sowed rice plant, effect on crop (criteria 0-5) [14]: 5 (Herbicidal ratio of 90% or more (almost completely withered))
b: directly sowed rice plant, effect grade on crop [15]: 5 (Herbicidal ratio of 90% or more (almost completely withered))
N: Amaranthus retroflexus, herbicidal effect (criteria 0-5) [16]: 0 (Herbicidal ratio of 5% or lower (almost no effect))
G: Setaria viridis, herbicidal effect grade [17]: 5 (Herbicidal ratio of 90% or more (almost completely withered))
Herbicidal effect grade, C: Monochoria vaginalis [18]: 1 (Herbicidal ratio of 5% or higher and lower than 20%)
O: Chenopodium album, herbicidal effect (criteria 0-5) [19]: 1 (Herbicidal ratio of 5% or higher and lower than 20%)
